Data set [1] in a line: in vitro. Conditions: human, blood.
Description: Half-life (human blood stability)
In data set [2] the target is T1, Neutrophil elastase (Homo sapiens) (UniProt P08246).
T1 sequence (whole entry): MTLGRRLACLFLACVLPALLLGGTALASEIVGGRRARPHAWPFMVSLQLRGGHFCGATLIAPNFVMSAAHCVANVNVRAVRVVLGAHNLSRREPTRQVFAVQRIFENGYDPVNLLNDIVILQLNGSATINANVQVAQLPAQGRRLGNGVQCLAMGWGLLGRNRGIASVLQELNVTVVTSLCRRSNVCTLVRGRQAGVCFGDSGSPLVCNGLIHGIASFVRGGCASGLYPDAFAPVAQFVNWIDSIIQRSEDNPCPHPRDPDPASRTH
Description: (§1) Evaluated for inhibitory activity against Human leukocyte elastase (HLE)

Data set [3] deals with T2, Neutrophil elastase (Homo sapiens, UniProt P08246).
T2 sequence (P08246 whole entry): T1 sequence (whole entry)
Description: Ratio of Koff to that of Kon was determined on human leukocyte elastase(HLE)

Data set [4] deals with T1, Neutrophil elastase (Homo sapiens). This is another data set of the same source.
Description: as §1
Data set [5] is described as follows: Half-life was determined; 88% of parent remained after incubation for 120 min (human blood stability). It counts as ADME, tissue-based.

The structures appear in SMILES notation.

A word on the half-life: it is the time in which the quantity being followed falls by half. The molecule `CCC(CC)c1cccc2c1C(=O)N(CSc1nnnn1-c1ccccc1)S2(=O)=O` displayed a half-life in data set [1] of 100 min.
Consider `COc1cc(C(C)C)c2c(c1)S(=O)(=O)N(COC(=O)c1c(Cl)cccc1Cl)C2=O`, for which the half-life in data set [1] came out at 140 min.
What is called Ki is a measure of affinity in units of concentration, obtained from inhibition or displacement. Molecule `COc1cc2c(c(C(C)C)c1OC)C(=O)N(CSc1nnnn1-c1ccccc1)S2(=O)=O` yielded a k on in data set [2] of 11800 M⁻¹ s⁻¹. In data set [3], this molecule yielded a Ki of 5.2 nM. In data set [4], this molecule had a k off of 6.1e-05 s⁻¹. This molecule also registered a half-life in data set [1] of 65 min.
Take `CCc1cccc2c1C(=O)N(CSc1nnnn1-c1ccccc1)S2(=O)=O`: the half-life in data set [1] stood at 54 min.
The molecule `CC(C)(C)c1cccc2c1C(=O)N(CSc1nnnn1-c1ccccc1)S2(=O)=O` registered a Ki in data set [3] of over 2000 nM. Further, in data set [5], the half-life is over 120 min.
In the case of `CC(C)c1cccc2c1C(=O)N(CSc1nnnn1-c1ccccc1)S2(=O)=O`, in data set [1], the half-life came to 45 min.
In turn, `CC(C)c1cc(F)cc2c1C(=O)N(COC(=O)c1c(Cl)cccc1Cl)S2(=O)=O` registered a k on in data set [2] of 1e+06 M⁻¹ s⁻¹. Also, in data set [3], the affinity, expressed as Ki, was 0.03 nM. The same molecule had a k off in data set [4] of 3e-05 s⁻¹. The same molecule registered a half-life in data set [1] of under 15 min.
`CC(C)c1cccc2c1C(=O)N(COC(=O)c1c(Cl)cccc1Cl)S2(=O)=O` returned a k on in data set [2] of 900000 M⁻¹ s⁻¹. In addition, the k off in data set [4] came out at 2.7e-05 s⁻¹. This molecule also gave a half-life in data set [1] of 30 min.
Turning to `CC(C)c1cc(N(C)C)cc2c1C(=O)N(COC(=O)c1c(Cl)cccc1Cl)S2(=O)=O`, in data set [2], the k on came out at 12300 M⁻¹ s⁻¹. Also, the inhibition constant (Ki) in data set [3] came to 2.2 nM. In data set [4], this molecule had a k off of 2.7e-05 s⁻¹.
In turn, `O=C1c2ccccc2S(=O)(=O)N1CSc1nnnn1-c1ccccc1` came in with a half-life in data set [1] of under 5 min.
Same read-out and setting: next, `CCC(C)c1cccc2c1C(=O)N(CSc1nnnn1-c1ccccc1)S2(=O)=O` (stereo unspecified): 58 min; `CCCc1cccc2c1C(=O)N(CSc1nnnn1-c1ccccc1)S2(=O)=O`: 55 min.
Take `CC(C)c1cc(N2CCN(C)CC2)cc2c1C(=O)N(COC(=O)c1c(Cl)cccc1Cl)S2(=O)=O`: in data set [2], the k on was determined as 21500 M⁻¹ s⁻¹. This molecule returned an inhibitory constant (Ki) in data set [3] of 1.1 nM. Also, the k off in data set [4] was found to be 2.4e-05 s⁻¹. In data set [1], this molecule displayed a half-life of 110 min.
In data set [2], `CCCc1c(OC)c(OC)cc2c1C(=O)N(CSc1nnnn1-c1ccccc1)S2(=O)=O` returned a k on of 240000 M⁻¹ s⁻¹. Also, the inhibitory constant (Ki) in data set [3] is 0.2 nM. The k off in data set [4] was 4.7e-05 s⁻¹. The same molecule returned a half-life in data set [1] of 37 min.

The values above are taken from ChEMBL document CHEMBL1128127, “The design of potent and stable benzisothiazolone inhibitors of human leukocyte elastase” (Bioorg Med Chem Lett, 1995).
